Values of other authors, collected in US20080003592A1, “Method for conducting pharmacogenomics-based studies” (priority 2003, published 2008).
Where a name gives a salt, the structure may show the parent alone.

Experiments:
[1] = depending on the regimen
[2] = advanced colorectal cancer

For `Nc1c2c(nc3ccccc13)CCCC2` [Cognex, tacrine hydrochloride], the patients minimally improved (Alzheimer's patients receiving Cognex, controls about 33%) is listed as “About 58%”, the “patients showing no change or minimal worsening of their disease” value (patients receiving Cognex for Alzheimer's disease, controls about 68%) is listed as “about 45%” and the patients much improved (patients receiving Cognex, controls about 1%) is listed as “about 2%”.

For `O=c1[nH]cc(F)c(=O)[nH]1` [5-fluorouracil], the “patients suffering serious gastrointestinal or hematopoietic toxicity” value [1] is given as 20-30%, the “patients with an objective response to the drug” value ([2]; standard therapy) is given as 20-40% and the “patients with a complete response (complete tumor disappearance)” value ([2]; of the patients with an objective response) is given as 1-5%.
